Measurements: US20050070480A1, “Peptide arginals and methods for treating disseminated intravascular coagulation” (priority 2001, published 2005)
Where two headings read alike, the source gives them in different places.

Key:
[1] = test system: endotoxin-treated rabbits; type: in vivo, rabbit
[2] = test system: LPS-treated rats; experiment: Survival in a rat model for disseminated intravascular coagulation; type: in vivo; conditions: for Survival rate %: rats, 30 mg/kg LPS i.v.
[3] = molecular target: plasmin (PL) (Homo sapiens, UniProt P00747); experiment: Fibrin plate assay, plasmin; type: biochemical; conditions: reduction of lysed area to 50% of control, read-out: LA50 PL
Sequence of plasmin (PL) (P00747 581-810 limits assumed, species assumed): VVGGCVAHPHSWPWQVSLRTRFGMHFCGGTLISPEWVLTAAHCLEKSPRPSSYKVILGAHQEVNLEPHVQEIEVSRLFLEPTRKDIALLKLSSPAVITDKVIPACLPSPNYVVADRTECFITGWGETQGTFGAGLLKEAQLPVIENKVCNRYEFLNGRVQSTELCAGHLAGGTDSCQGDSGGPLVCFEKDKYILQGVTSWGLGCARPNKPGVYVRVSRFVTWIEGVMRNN
Sequence of plasmin (PL) (P00747 97-580 limits assumed, species assumed): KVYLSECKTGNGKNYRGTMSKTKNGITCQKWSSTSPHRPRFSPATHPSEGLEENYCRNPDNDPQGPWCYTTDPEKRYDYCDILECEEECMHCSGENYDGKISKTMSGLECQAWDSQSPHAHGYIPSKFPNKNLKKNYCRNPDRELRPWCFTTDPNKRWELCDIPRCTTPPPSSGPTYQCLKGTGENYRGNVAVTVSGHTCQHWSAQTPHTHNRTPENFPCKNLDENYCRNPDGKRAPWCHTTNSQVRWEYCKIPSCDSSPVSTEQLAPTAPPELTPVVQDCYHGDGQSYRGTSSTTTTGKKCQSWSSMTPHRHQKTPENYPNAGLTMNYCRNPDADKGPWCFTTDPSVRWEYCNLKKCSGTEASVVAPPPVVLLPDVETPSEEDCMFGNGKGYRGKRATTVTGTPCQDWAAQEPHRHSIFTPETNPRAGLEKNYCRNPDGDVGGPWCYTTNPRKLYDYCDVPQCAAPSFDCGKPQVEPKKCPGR
Source text: (§1) Inhibitory effects of the compounds of the invention on plasmin (PL) and plasmin generation by plasminogen (Plogen) activators, such as tissue plasminogen activator (tPA), and urokinase (UK) were examined by the fibrin plate assay. (See e.g., Bagdy, D., Barabás, E., Bajusz, S., and Széll, E., Thromb. Haemostas., 67:325-330 (1992); Barabás, E. Szell, E. and Bajusz, S, Blood Coagulation and Fibrinolysis, 4: 243 (1993)) The results are shown in Table 1, Column C. With a few exceptions the analogues are somewhat more inhibitory than Efegatran against the three fibrinolytic enzymes.

[4] = test system: citrated human plasma; experiment: Prothrombin time (PT) plasma clotting assay; type: biochemical
Experimental: (§2) The inhibitory effect on plasma coagulation was evaluated in the thrombin time (TT), activated partial thromboplastin time (APTT) and prothrombin time (PT) assays by using citrated human plasma as substrate [Bagdy, D. et. al.: Thromb. Haemostas. 67, 325 (1992)]. The TT assay measures the inhibition of a single step, the coagulation of fibrinogen on the action of exogenous thrombin (final concentration 2.5 NIH U/ml). Clotting of plasma in the APTT and PT assays was induced by recalcification. Endogenous thrombin generated could theoretically be present at a final concentration as high as 50 NIH U/ml (APTT, PT). These assays detect the sum of inhibitory actions on fibrin formation and thrombin generation, which includes several proteolytic reactions mediated by either thrombin or other enzymes, e.g. fXa. Anticlotting activity is expressed in CT2, which is the concentration (nM) required to double the clotting time.

[5] = molecular target: clot-bound factor Xa (Homo sapiens, UniProt P00742); experiment: Enzyme inhibition in platelet-rich plasma clots, chromogenic substrate Moc-D-Chg-Gly-Arg-pNA; type: biochemical
Sequence of clot-bound factor Xa (P00742 235-488 limits assumed): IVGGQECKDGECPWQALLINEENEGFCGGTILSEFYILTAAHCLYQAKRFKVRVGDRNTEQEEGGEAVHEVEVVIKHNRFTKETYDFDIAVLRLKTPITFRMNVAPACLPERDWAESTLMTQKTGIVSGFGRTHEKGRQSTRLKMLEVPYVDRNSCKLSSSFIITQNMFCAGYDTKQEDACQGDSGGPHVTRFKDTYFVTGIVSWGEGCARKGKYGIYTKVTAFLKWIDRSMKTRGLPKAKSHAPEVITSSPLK
Sequence of clot-bound factor Xa (P00742 41-179 limits assumed): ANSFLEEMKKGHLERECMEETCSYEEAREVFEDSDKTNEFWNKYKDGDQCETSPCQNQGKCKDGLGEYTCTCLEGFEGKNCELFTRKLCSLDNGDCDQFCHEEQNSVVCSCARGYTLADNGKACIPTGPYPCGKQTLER
Experimental: (§3) Tos-Gly-Pro-Arg-pNA (S1) for thrombin and Moc-D-Chg-Gly-Arg-pNA (S2) for factor Xa, as published (Bajusz, S. et al.: PCT Pub. No. WO97/46576) briefly. The assays were carried out at room temperature in glass tubes and 96-well microtiter plates.
(§4) Solutions, (i) Buffer A: 0.1 M sodium phosphate/0.05 M NaCl (pH 8.5). (ii) Inhibitors: 0.1, 1.0 and 10 mg/ml solutions in buffer A containing 0.02% human albumin. (iii) Substrates: 1 mM of S1 and 2 mM of S2 in distilled water.
(§5) (b) Preparation of plasma clots. Platelet rich plasma samples (200 μl) placed in glass tubes were incubated at room temperature with 80 μl 40 mM CaCl2 for 60 min. The clots were washed with 2 ml aliquots of saline (0.9% NaCl) with gentle agitation to remove unbound enzymes In case of successful washing the optical density of the reaction mixture of wash and S1 is less than 5% of the control. The plasma clot thus obtained was kept under saline in the tube until use.
(§6) (c) Assessment of the enzyme inhibition in the clots. After removal of saline, the plasma clot was incubated at 37° C. with 400 μl inhibitor (or buffer A as negative control) for 5 min. and with 100 μl substrate S1 or S3 for 30 min., then the reaction was stopped with 100 μl 50% acetic acid. 150 μl portions of the reaction mixtures were placed in the wells of a microtiter plate and read at 405 nm (ELISA READER 800, Bio-Tek Instruments Inc. Winooski, Vt., USA). IC50 values were generated from the extinction data graphically.

[6] = test system: citrated human plasma; experiment: Activated partial thromboplastin time (APTT) plasma clotting assay; type: biochemical
Experimental: as §2

[7] = test system: citrated human plasma (exogenous thrombin); experiment: Thrombin time (TT) plasma clotting assay; type: biochemical; conditions: thrombin 2.5 NIH U/ml
Experimental: as §2

[8] = molecular target: tissue plasminogen activator (tPA) (Homo sapiens, UniProt P00750); experiment: Fibrin plate assay, tissue plasminogen activator; type: biochemical; conditions: reduction of lysed area to 50% of control, read-out: LA50 tPA
Sequence of tissue plasminogen activator (tPA) (P00750 36-562, species assumed): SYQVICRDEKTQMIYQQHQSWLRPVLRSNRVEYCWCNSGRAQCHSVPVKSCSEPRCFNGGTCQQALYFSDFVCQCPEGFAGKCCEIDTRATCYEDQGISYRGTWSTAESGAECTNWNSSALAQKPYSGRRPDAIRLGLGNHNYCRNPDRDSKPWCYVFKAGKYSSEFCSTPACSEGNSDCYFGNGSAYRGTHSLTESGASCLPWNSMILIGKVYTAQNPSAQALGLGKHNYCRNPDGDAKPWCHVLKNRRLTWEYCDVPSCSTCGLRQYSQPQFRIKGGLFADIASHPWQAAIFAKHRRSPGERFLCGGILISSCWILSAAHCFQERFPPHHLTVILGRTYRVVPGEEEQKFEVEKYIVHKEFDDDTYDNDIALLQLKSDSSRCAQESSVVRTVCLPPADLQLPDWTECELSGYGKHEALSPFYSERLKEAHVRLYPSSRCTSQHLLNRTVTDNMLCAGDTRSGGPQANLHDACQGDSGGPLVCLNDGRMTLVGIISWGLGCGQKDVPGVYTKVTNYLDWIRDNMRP
Source text: as §1

[9] = molecular target: clot-bound thrombin (Homo sapiens, UniProt P00734); experiment: Enzyme inhibition in platelet-rich plasma clots, chromogenic substrate Tos-Gly-Pro-Arg-pNA; type: biochemical; conditions: for IC50: clot-bound thrombin, platelet-rich plasma clot
Experimental: as §3, §4, §5, §6

[10] = molecular target: urokinase (UK) (Homo sapiens, UniProt P00749); experiment: Fibrin plate assay, urokinase; type: biochemical; conditions: for IC50: reduction of lysed area to 50% of control, urokinase, read-out: LA50 UK
Source text: as §1

[11] = endotoxin-treated rabbits, 0.25 mg/kg/h infusion, 2 hrs
[12] = endotoxin-treated rabbits, 0.25 mg/kg/h infusion, 4 hrs
[13] = endotoxin-treated rabbits, 0.5 mg/kg/h infusion, 2 hrs
[14] = endotoxin-treated rabbits, 0.5 mg/kg/h infusion, 4 hrs
[15] = 0.75 mg/kg bolus + infusion, 0 hours
[16] = 0.75 mg/kg bolus + infusion, 4 hours
[17] = 0.75 mg/kg bolus + infusion, 5 hours
[18] = 0.75 mg/kg bolus + infusion, 6 hours
[19] = 0.75 mg/kg bolus + infusion, 7 hours
[20] = 0.75 mg/kg bolus + infusion, 8 hours
[21] = 1.5 mg/kg bolus + infusion, 0 hours
[22] = 1.5 mg/kg bolus + infusion, 4 hours
[23] = 1.5 mg/kg bolus + infusion, 5 hours
[24] = 1.5 mg/kg bolus + infusion, 6 hours
[25] = 1.5 mg/kg bolus + infusion, 7 hours
[26] = 1.5 mg/kg bolus + infusion, 8 hours

| SMILES | Survival rate % [2, 15] | Survival rate % [2, 16] | Survival rate % [2, 17] | Survival rate % [2, 18] | Survival rate % [2, 19] | Survival rate % [2, 20] | Survival rate % [2, 21] | Survival rate % [2, 22] | Survival rate % [2, 23] | Survival rate % [2, 24] | Survival rate % [2, 25] | Survival rate % [2, 26] | IC50 [3] | CT2 PT (concentration required for doubling the clotting time) [4] | IC50 [5] | CT2 APTT (concentration required for doubling the clotting time) [6] | CT2 TT (concentration required for doubling the clotting time) [7] | IC50 [8] | IC50 [9] | IC50 [10] | further results |
| --- | --- | --- | --- | --- | --- | --- | --- | --- | --- | --- | --- | --- | --- | --- | --- | --- | --- | --- | --- | --- | --- |
| CN[C@H](Cc1ccccc1)C(=O)N1CCC[C@H]1C(=O)N[C@H](C=O)CCCN=C(N)N [C, D-MePhe-Pro-Arg-H, reference compound] | 100% | 93% | 73% | 67% | 33% | 27% | 100% | 100% | 100% | 100% | 92% | 92% | 54 µM | 2915 nM | 1 µM | 622 nM | 87 nM | 132 µM | 0.375 µM | 82 µM | Lethality %, 2 hrs [1, 11]: 7%; Lethality no. died/treated animals, 2 hrs [1, 11]: 1/14; Lethality %, 4 hrs [1, 12]: 36%; Lethality no. died/treated animals, 4 hrs [1, 12]: 5/14; Lethality %, 2 hrs [1, 13]: 7%; Lethality no. died/treated animals, 2 hrs [1, 13]: 1/15; Lethality %, 4 hrs [1, 14]: 40%; Lethality no. died/treated animals, 4 hrs [1, 14]: 6/15; Survival rate % ([2]; 1.0 mg/kg bolus + infusion, 0 hours): 100%; Survival rate % ([2]; 1.0 mg/kg bolus + infusion, 4 hours): 83%; Survival rate % ([2]; 1.0 mg/kg bolus + infusion, 5 hours): 83%; Survival rate % ([2]; 1.0 mg/kg bolus + infusion, 6 hours): 66%; Survival rate % ([2]; 1.0 mg/kg bolus + infusion, 7 hours): 58%; Survival rate % ([2]; 1.0 mg/kg bolus + infusion, 8 hours): 50% |
| N=C(N)NCCC[C@@H](C=O)NC(=O)[C@@H]1CCCN1C(=O)[C@H](O)CC1CCCCCC1 [Compound 3, D-cycloheptyllactyl-L-prolyl-L-arginine aldehyde] | 100% | 100% | 100% | 100% | 100% | 92% | 100% | 100% | 100% | 100% | 100% | 92% | 21 µM | 1082 nM | 0.117 µM | 281 nM | 86 nM | 10 µM | 0.095 µM | 85 µM | Effect on lethality of endotoxin-treated rabbits (in words) ([1]; rabbit, in vivo): significantly reduce the lethality; Lethality %, 2 hrs ([1]; rabbit, in vivo, 0.25 mg/kg): 0%; Lethality %, 4 hrs ([1]; rabbit, in vivo, 0.25 mg/kg): 18%; Lethality no. died/treated animals, 2 hrs ([1]; rabbit, in vivo, 0.25 mg/kg): 0/22; Lethality no. died/treated animals, 4 hrs ([1]; rabbit, in vivo, 0.25 mg/kg): 4/22; Effectiveness on survival compared with reference C (in words) ([2]; LPS-treated rats): more effective than reference C; Survival rate % ([2]; 0.5 mg/kg bolus + infusion, 0 hours): 100%; Survival rate % ([2]; 0.5 mg/kg bolus + infusion, 4 hours): 100%; Survival rate % ([2]; 0.5 mg/kg bolus + infusion, 5 hours): 100%; Survival rate % ([2]; 0.5 mg/kg bolus + infusion, 6 hours): 100%; Survival rate % ([2]; 0.5 mg/kg bolus + infusion, 7 hours): 100%; Survival rate % ([2]; 0.5 mg/kg bolus + infusion, 8 hours): 80%; Inhibition of clot-bound thrombin compared with Efegatran (in words) [9]: surpass Efegatran; Activity against UK compared with Efegatran (in words) [10]: almost equiactive with Efegatran |
